Experimental data published in US20230348442A1, “GALECTIN-3 INHIBITING 2-HYDROXYCYCLOALKANE-1-CARBAMOYL DERIVATIVES” (Idorsia Pharmaceuticals Ltd, priority 2020, published 2023).

Biological target: human Gal-3 (hGal-3) (Homo sapiens (Human), UniProt P17931)
Experiment: competitive binding assay: binding of biotinylated hGal-3 to microplate-adsorbed asialofetuin (ASF), spectrophotometric
Conditions: Activity on hGal-3; mean values of several measurements
Outline: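 Spectrophotometric readout (streptavidin-peroxidase, ABTS) of biotinylated galectin retained on ASF-coated wells. Biotinylated hGal-1 or hGal-3, 300-1000 ng/mL, co-incubated with test compound 3 h at 4° C, then washed. Mean IC50 from repeat runs.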

human Gal-3 (hGal-3), sequence (P17931 whole entry): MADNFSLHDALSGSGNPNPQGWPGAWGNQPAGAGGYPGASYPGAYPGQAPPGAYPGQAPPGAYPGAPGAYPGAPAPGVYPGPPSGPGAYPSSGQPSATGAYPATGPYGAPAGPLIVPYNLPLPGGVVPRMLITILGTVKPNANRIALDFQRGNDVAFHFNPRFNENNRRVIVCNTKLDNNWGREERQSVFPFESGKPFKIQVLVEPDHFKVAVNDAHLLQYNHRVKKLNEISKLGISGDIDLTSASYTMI

Structure (SMILES)	IC50
CO[C@@H]1[C@@H](n2cc(-c3ccc(Cl)c(Cl)c3)nn2)[C@@H](O)[C@@H](CO)O[C@H]1C(=O)N(c1cc(Cl)cc(C#N)c1)[C@@H]1CCC[C@H]1O [Example 1.8.4R, (2R,3R,4S,5R,6R)-N-(3-chloro-5-cyanophenyl)-4-(4-(3,4-dichlorophenyl)-1H-1,2,3-triazol-1-yl)-5-hydroxy-N-((1R,2R)-2-hydroxycyclopentyl)-6-(hydroxymethyl)-3-methoxytetrahydro-2H-pyran-2-carboxamide]	330 nM
CO[C@@H]1[C@@H](n2cc(-c3cccc(F)c3)nn2)[C@@H](O)[C@@H](CO)O[C@H]1C(=O)N(c1cc(Br)cc(C#N)c1)[C@H]1CCC[C@@H]1O [Example 1.15.5, (2R,3R,4S,5R,6R)-N-(3-bromo-5-cyanophenyl)-4-(4-(3-fluorophenyl)-1H-1,2,3-triazol-1-yl)-5-hydroxy-N-((1S,2S)-2-hydroxycyclopentyl)-6-(hydroxymethyl)-3-methoxytetrahydro-2H-pyran-2-carboxamide]	66 nM
COc1cc(C#N)cc(N(C(=O)[C@@H]2O[C@H](CO)[C@H](O)[C@H](n3cc(-c4ccc(C#N)c(F)c4)nn3)[C@H]2OC)[C@@H]2CCC[C@H]2O)c1 [Example 1.16.9R, (2R,3R,4S,5R,6R)-4-(4-(4-cyano-3-fluorophenyl)-1H-1,2,3-triazol-1-yl)-N-(3-cyano-5-methoxyphenyl)-5-hydroxy-N-((1R,2R)-2-hydroxycyclopentyl)-6-(hydroxymethyl)-3-methoxytetrahydro-2H-pyran-2-carboxamide]	1460 nM
O=C([C@@H]1O[C@H](CO)[C@H](O)[C@H](n2cc(-c3cc(F)c(Cl)c(F)c3)nn2)[C@H]1O)N(c1cc(Cl)cc(Cl)c1)[C@H]1CCC[C@@H]1O [Example 1H.5.2, (2R,3R,4S,5R,6R)-4-(4-(4-chloro-3,5-difluorophenyl)-1H-1,2,3-triazol-1-yl)-N-(3,5-dichlorophenyl)-3,5-dihydroxy-N-((1S,2S)-2-hydroxycyclopentyl)-6-(hydroxymethyl)tetrahydro-2H-pyran-2-carboxamide]	14.3 nM
CO[C@@H]1[C@@H](n2cc(-c3cc(F)c(F)c(F)c3)nn2)[C@@H](O)[C@@H](CO)O[C@H]1C(=O)N(c1cccc(Cl)c1)[C@H]1CC[C@@H]1O [Example 2.1.1, (2R,3R,4S,5R,6R)-N-(3-chlorophenyl)-5-hydroxy-N-((1S,2S)-2-hydroxycyclobutyl)-6-(hydroxymethyl)-3-methoxy-4-(4-(3,4,5-trifluorophenyl)-1H-1,2,3-triazol-1-yl)tetrahydro-2H-pyran-2-carboxamide]	109 nM
CO[C@@H]1[C@@H](n2cc(-c3ccc(C)c(F)c3)nn2)[C@@H](O)[C@@H](CO)O[C@H]1C(=O)N(c1cc(C)cc(C#N)c1)[C@H]1CCC[C@@H]1O [Example 1.13.8, (2R,3R,4S,5R,6R)-N-(3-cyano-5-methylphenyl)-4-(4-(3-fluoro-4-methylphenyl)-1H-1,2,3-triazol-1-yl)-5-hydroxy-N-((1S,2S)-2-hydroxycyclopentyl)-6-(hydroxymethyl)-3-methoxytetrahydro-2H-pyran-2-carboxamide]	33.2 nM
CO[C@@H]1[C@@H](n2cc(-c3cc(F)c(F)c(F)c3)nn2)[C@@H](O)[C@@H](CO)O[C@H]1C(=O)N(c1cc(Cl)cc(Cl)c1)[C@@H]1CC[C@H]1O [Example 2.1.2R, (2R,3R,4S,5R,6R)-N-(3,5-dichlorophenyl)-5-hydroxy-N-((1R,2R)-2-hydroxycyclobutyl)-6-(hydroxymethyl)-3-methoxy-4-(4-(3,4,5-trifluorophenyl)-1H-1,2,3-triazol-1-yl)tetrahydro-2H-pyran-2-carboxamide]	110 nM
CO[C@@H]1[C@@H](n2cc(-c3ccc(Br)c(F)c3F)nn2)[C@@H](O)[C@@H](CO)O[C@H]1C(=O)N(c1cc(Cl)cc(C#N)c1)[C@H]1CCC[C@@H]1O [Example 1.12.4, (2R,3R,4S,5R,6R)-4-(4-(4-bromo-2,3-difluorophenyl)-1H-1,2,3-triazol-1-yl)-N-(3-chloro-5-cyanophenyl)-5-hydroxy-N-((1S,2S)-2-hydroxycyclopentyl)-6-(hydroxymethyl)-3-methoxytetrahydro-2H-pyran-2-carboxamide]	21.7 nM
CO[C@@H]1[C@@H](n2cc(-c3cc(F)c(Cl)c(Cl)c3)nn2)[C@@H](O)[C@@H](CO)O[C@H]1C(=O)N(c1cc(Cl)cc(C#N)c1)[C@@H]1CCC[C@H]1O [Example 1.17.4R, (2R,3R,4S,5R,6R)-N-(3-chloro-5-cyanophenyl)-4-(4-(3,4-dichloro-5-fluorophenyl)-1H-1,2,3-triazol-1-yl)-5-hydroxy-N-((1R,2R)-2-hydroxycyclopentyl)-6-(hydroxymethyl)-3-methoxytetrahydro-2H-pyran-2-carboxamide]	238 nM
CO[C@@H]1[C@@H](n2cc(-c3ccc(C)c(F)c3)nn2)[C@@H](O)[C@@H](CO)O[C@H]1C(=O)N(c1cc(C)cc(C#N)c1)[C@@H]1CCC[C@H]1O [Example 1.13.8R, (2R,3R,4S,5R,6R)-N-(3-cyano-5-methylphenyl)-4-(4-(3-fluoro-4-methylphenyl)-1H-1,2,3-triazol-1-yl)-5-hydroxy-N-((1R,2R)-2-hydroxycyclopentyl)-6-(hydroxymethyl)-3-methoxytetrahydro-2H-pyran-2-carboxamide]	206 nM
CO[C@@H]1[C@@H](n2cc(-c3cc(F)c(F)c(F)c3)nn2)[C@@H](O)[C@@H](CO)O[C@H]1C(=O)N(c1cc(Cl)cc(C#N)c1)[C@H]1CCC[C@@H]1O [Example 1.1.4, (2R,3R,4S,5R,6R)-N-(3-chloro-5-cyanophenyl)-5-hydroxy-N-((1S,2S)-2-hydroxycyclopentyl)-6-(hydroxymethyl)-3-methoxy-4-(4-(3,4,5-trifluorophenyl)-1H-1,2,3-triazol-1-yl)tetrahydro-2H-pyran-2-carboxamide]	27.3 nM

Second part, the compound after the results:

IC50	Structure (SMILES)
196 nM	CO[C@@H]1[C@@H](n2cc(-c3cc(F)c(F)c(F)c3)nn2)[C@@H](O)[C@@H](CO)O[C@H]1C(=O)N(c1cccc(I)c1)[C@H]1CC[C@@H]1O [Example 2.1.6, (2R,3R,4S,5R,6R)-5-hydroxy-N-((1S,2S)-2-hydroxycyclobutyl)-6-(hydroxymethyl)-N-(3-iodophenyl)-3-methoxy-4-(4-(3,4,5-trifluorophenyl)-1H-1,2,3-triazol-1-yl)tetrahydro-2H-pyran-2-carboxamide]
113 nM	COc1cc(-c2cn([C@H]3[C@@H](O)[C@@H](CO)O[C@@H](C(=O)N(c4cc(Br)cc(Br)c4)[C@H]4CC[C@@H]4O)[C@@H]3OC)nn2)cc(F)c1F [Example 2.3.11, (2R,3R,4S,5R,6R)-N-(3,5-dibromophenyl)-4-(4-(3,4-difluoro-5-methoxyphenyl)-1H-1,2,3-triazol-1-yl)-5-hydroxy-N-((1S,2S)-2-hydroxycyclobutyl)-6-(hydroxymethyl)-3-methoxytetrahydro-2H-pyran-2-carboxamide]
134 nM	CO[C@@H]1[C@@H](n2cc(-c3cc(F)c(C)c(F)c3)nn2)[C@@H](O)[C@@H](CO)O[C@H]1C(=O)N(c1cc(Cl)cc(Cl)c1)[C@@H]1CC[C@H]1O [Example 2.4.2R, (2R,3R,4S,5R,6R)-N-(3,5-dichlorophenyl)-4-(4-(3,5-difluoro-4-methylphenyl)-1H-1,2,3-triazol-1-yl)-5-hydroxy-N-((1R,2R)-2-hydroxycyclobutyl)-6-(hydroxymethyl)-3-methoxytetrahydro-2H-pyran-2-carboxamide]
74.8 nM	CO[C@@H]1[C@@H](n2cc(-c3ccc(C)c(F)c3F)nn2)[C@@H](O)[C@@H](CO)O[C@H]1C(=O)N(c1cc(Cl)cc(Cl)c1)[C@@H]1CC[C@H]1O [Example 2.11.2R, (2R,3R,4S,5R,6R)-N-(3,5-dichlorophenyl)-4-(4-(2,3-difluoro-4-methylphenyl)-1H-1,2,3-triazol-1-yl)-5-hydroxy-N-((1R,2R)-2-hydroxycyclobutyl)-6-(hydroxymethyl)-3-methoxytetrahydro-2H-pyran-2-carboxamide]
36.2 nM	CC(=O)O[C@@H]1[C@@H](n2cc(-c3cc(F)c(F)c(F)c3)nn2)[C@@H](O)[C@@H](CO)O[C@H]1C(=O)N(c1cc(Cl)cc(C#N)c1)[C@H]1CC[C@@H]1O [Example 2A.1.4, (2R,3R,4S,5R,6R)-2-((3-chloro-5-cyanophenyl)((1S,2S)-2-hydroxycyclobutyl)carbamoyl)-5-hydroxy-6-(hydroxymethyl)-4-(4-(3,4,5-trifluorophenyl)-1H-1,2,3-triazol-1-yl)tetrahydro-2H-pyran-3-yl acetate]
116 nM	COc1cc(-c2cn([C@H]3[C@@H](O)[C@@H](CO)O[C@@H](C(=O)N(c4cc(C)cc(Br)c4)[C@H]4CC[C@@H]4O)[C@@H]3OC)nn2)cc(F)c1F [Example 2.3.12, (2R,3R,4S,5R,6R)-N-(3-bromo-5-methylphenyl)-4-(4-(3,4-difluoro-5-methoxyphenyl)-1H-1,2,3-triazol-1-yl)-5-hydroxy-N-((1S,2S)-2-hydroxycyclobutyl)-6-(hydroxymethyl)-3-methoxytetrahydro-2H-pyran-2-carboxamide]
155 nM	CO[C@@H]1[C@@H](n2cc(-c3ccc(Cl)c(Cl)c3)nn2)[C@@H](O)[C@@H](CO)O[C@H]1C(=O)N(c1cc(Br)cc(C#N)c1)[C@H]1CC[C@@H]1O [Example 2.8.5, (2R,3R,4S,5R,6R)-N-(3-bromo-5-cyanophenyl)-4-(4-(3,4-dichlorophenyl)-1H-1,2,3-triazol-1-yl)-5-hydroxy-N-((1S,2S)-2-hydroxycyclobutyl)-6-(hydroxymethyl)-3-methoxytetrahydro-2H-pyran-2-carboxamide]
29 nM	CC(=O)O[C@@H]1[C@@H](n2cc(-c3cc(F)c(F)c(F)c3)nn2)[C@@H](O)[C@@H](CO)O[C@H]1C(=O)N(c1cc(Cl)cc(Cl)c1)[C@H]1CC[C@@H]1O [Example 2A.1.2, (2R,3R,4S,5R,6R)-2-((3,5-dichlorophenyl)((1S,2S)-2-hydroxycyclobutyl)carbamoyl)-5-hydroxy-6-(hydroxymethyl)-4-(4-(3,4,5-trifluorophenyl)-1H-1,2,3-triazol-1-yl)tetrahydro-2H-pyran-3-yl acetate]
